# Assay results as given in ChEMBL document CHEMBL1140860, “Synthesis and evaluation of dihydroartemisinin and dihydroartemisitene acetal dimers showing anticancer and antiprotozoal activity” (Bioorg Med Chem, 2009).
# Columns and labels:
# OVCAR-5 = assay: Growth inhibition of human OVCAR5 cells after 48 hrs by sulforhodamine B assay; type: functional; conditions: OVCAR-5, 48 h
# MDA-MB-231 = assay: Growth inhibition of human MDA-MB-231 cells after 48 hrs by sulforhodamine B assay; type: functional; conditions: MDA-MB-231, 48 h
# SK-MEL-5 = assay: Growth inhibition of human SK-MEL-5 cells after 48 hrs by sulforhodamine B assay; type: functional; conditions: SK-MEL-5, 48 h
# IGROV-1 = assay: Growth inhibition of human IGROV1 cells after 48 hrs by sulforhodamine B assay; type: functional; conditions: IGROV-1, 48 h
# M14 = assay: Growth inhibition of human M14 cells after 48 hrs by sulforhodamine B assay; type: functional; conditions: M14, 48 h
# NCI-H522 = assay: Growth inhibition of human NCI-H522 cells after 48 hrs by sulforhodamine B assay; type: functional; conditions: NCI-H522, 48 h
# UACC-257 = assay: Growth inhibition of human UACC257 cells after 48 hrs by sulforhodamine B assay; type: functional; conditions: UACC-257, 48 h
# CCRF-CEM = assay: Growth inhibition of human CCRF-CEM cells after 48 hrs by sulforhodamine B assay; type: functional
# MDA-MB-435 = assay: Growth inhibition of human MDA-MB-435 cells after 48 hrs by sulforhodamine B assay; type: functional; conditions: MDA-MB-435, 48 h
# SR = assay: Growth inhibition of human SR cells after 48 hrs by sulforhodamine B assay; type: functional
# NCI-H226 = assay: Growth inhibition of human NCI-H226 cells after 48 hrs by sulforhodamine B assay; type: functional; conditions: NCI-H226, 48 h
# U-251 = assay: Growth inhibition of human U251 cells after 48 hrs by sulforhodamine B assay; type: functional; conditions: U-251, 48 h
# PC-3 = assay: Growth inhibition of human PC3 cells after 48 hrs by sulforhodamine B assay; type: functional; conditions: PC-3, 48 h
# NCI-H460 = assay: Growth inhibition of human NCI-H460 cells after 48 hrs by sulforhodamine B assay; type: functional; conditions: NCI-H460, 48 h
# SK-MEL-28 = assay: Growth inhibition of human SK-MEL-28 cells after 48 hrs by sulforhodamine B assay; type: functional; conditions: SK-MEL-28, 48 h
# HOP-62 = assay: Growth inhibition of human HOP62 cells after 48 hrs by sulforhodamine B assay; type: functional; conditions: HOP-62, 48 h
# [1] = Cytotoxicity against african green monkey Vero cells after 48 hrs by neutral red assay; type: cell-based; conditions: chlorocebus sabaeus, read-out: TC50
# UACC-62 = assay: Growth inhibition of human UACC62 cells after 48 hrs by sulforhodamine B assay; type: functional; conditions: UACC-62, 48 h
# CAKI-1 = assay: Growth inhibition of human Caki1 cells after 48 hrs by sulforhodamine B assay; type: functional; conditions: CAKI-1, 48 h
# Malme-3M = assay: Growth inhibition of human MALME-3M cells after 48 hrs by sulforhodamine B assay; type: functional
# [2] = Selectivity index, ratio of TC50 for african green monkey (Cercopithecus aethiops) Vero cells to IC50 for chloroquine-resistant Plasmodium falciparum W2; type: toxicity, cell-based
# A498 = assay: Growth inhibition of human A498 cells after 48 hrs by sulforhodamine B assay; type: functional; conditions: A498, 48 h
# HOP-92 = assay: Growth inhibition of human HOP92 cells after 48 hrs by sulforhodamine B assay; type: functional; conditions: HOP-92, 48 h
# A549 = assay: Growth inhibition of human A549 cells after 48 hrs by sulforhodamine B assay; type: functional; conditions: A549, 48 h
# HCT-116 = assay: Growth inhibition of human HCT116 cells after 48 hrs by sulforhodamine B assay; type: functional; conditions: HCT-116, 48 h
# [3] = Growth inhibition of human […] cells after 48 hrs by sulforhodamine B assay; type: functional
# OVCAR-8 = assay: Growth inhibition of human OVCAR8 cells after 48 hrs by sulforhodamine B assay; type: functional; conditions: OVCAR-8, 48 h
# NCI/ADR-RES = assay: Growth inhibition of human NCI/ADR-RES cells after 48 hrs by sulforhodamine B assay; type: functional
# MOLT-4 = assay: Growth inhibition of human MOLT4 cells after 48 hrs by sulforhodamine B assay; type: functional; conditions: MOLT-4, 48 h
# BT-549 = assay: Growth inhibition of human BT549 cells after 48 hrs by sulforhodamine B assay; type: functional; conditions: BT-549, 48 h
# HCC 2998 = assay: Growth inhibition of human HCC2998 cells after 48 hrs by sulforhodamine B assay; type: functional; conditions: HCC 2998, 48 h
# MCF7 = assay: Growth inhibition of human MCF7 cells after 48 hrs by sulforhodamine B assay; type: functional; conditions: MCF7, 48 h
# RXF 393 = assay: Growth inhibition of human RXF393 cells after 48 hrs by sulforhodamine B assay; type: functional; conditions: RXF 393, 48 h
# OVCAR-3 = assay: Growth inhibition of human OVCAR-3 cells after 48 hrs by sulforhodamine B assay; type: functional; conditions: OVCAR-3, 48 h
# Plasmodium falciparum = assay: Antimalarial activity after 72 hrs against chloroquine-sensitive Plasmodium falciparum D6 infected in erythrocytes by LDH assay; type: functional, organism-based; conditions: D6, 72 h
# HL-60 = assay: Growth inhibition of human HL-60(TB) cells after 48 hrs by sulforhodamine B assay; type: functional; conditions: HL-60, 48 h
# EKVX = assay: Growth inhibition of human EKVX cells after 48 hrs by sulforhodamine B assay; type: functional
# TK-10 = assay: Growth inhibition of human TK10 cells after 48 hrs by sulforhodamine B assay; type: functional; conditions: TK-10, 48 h
# SF-268 = assay: Growth inhibition of human SF268 cells after 48 hrs by sulforhodamine B assay; type: functional; conditions: SF-268, 48 h
# MDA-N = assay: Growth inhibition of human MDA-N cells after 48 hrs by sulforhodamine B assay; type: functional
# KM12 = assay: Growth inhibition of human KM12 cells after 48 hrs by sulforhodamine B assay; type: functional; conditions: KM12, 48 h
# [4] = Growth inhibition of human Hs 578T cells after 48 hrs by sulforhodamine B assay; type: functional
# HCT-15 = assay: Growth inhibition of human HCT15 cells after 48 hrs by sulforhodamine B assay; type: functional; conditions: HCT-15, 48 h
# ACHN = assay: Growth inhibition of human ACHN cells after 48 hrs by sulforhodamine B assay; type: functional
# SW-620 = assay: Growth inhibition of human SW620 cells after 48 hrs by sulforhodamine B assay; type: functional; conditions: SW-620, 48 h
# [5] = Selectivity index, ratio of TC50 for african green monkey (Cercopithecus aethiops) Vero cells to IC50 for chloroquine-sensitive Plasmodium falciparum D6; type: toxicity, cell-based
# HT-29 = assay: Growth inhibition of human HT-29 cells after 48 hrs by sulforhodamine B assay; type: functional; conditions: HT-29, 48 h
# LOX IMVI = assay: Growth inhibition of human LOXIMVI cells after 48 hrs by sulforhodamine B assay; type: functional
# 786-0 = assay: Growth inhibition of human 786-0 cells after 48 hrs by sulforhodamine B assay; type: functional; conditions: 786-0, 48 h
# SF-295 = assay: Growth inhibition of human SF295 cells after 48 hrs by sulforhodamine B assay; type: functional; conditions: SF-295, 48 h
structure (smiles),measurement,setting,value
C[C@H]1[C@@H](OCC(=O)CO[C@H]2O[C@@H]3O[C@@]4(C)CC[C@H]5[C@H](C)CC[C@@H]([C@H]2C)[C@@]35OO4)O[C@@H]2O[C@@]3(C)CC[C@H]4[C@H](C)CC[C@@H]1[C@@]24OO3,GI50,OVCAR-5,< 0.01 µM
same,GI50,MDA-MB-231,3.33 µM
same,GI50,SK-MEL-5,< 0.01 µM
same,GI50,IGROV-1,1.74 µM
same,GI50,M14,< 0.01 µM
same,GI50,NCI-H522,0.018 µM
same,GI50,UACC-257,< 0.01 µM
same,GI50,CCRF-CEM,< 0.01 µM
same,GI50,MDA-MB-435,0.017 µM
same,GI50,SR,< 0.01 µM
same,GI50,NCI-H226,0.331 µM
same,GI50,U-251,< 0.01 µM
same,GI50,PC-3,< 0.01 µM
same,GI50,NCI-H460,< 0.01 µM
same,GI50,SK-MEL-28,11.7 µM
same,GI50,HOP-62,11.9 µM
same,CC50 at 48 h,[1],> 7640 µM
same,GI50,UACC-62,< 0.01 µM
same,GI50,CAKI-1,0.077 µM
same,GI50,Malme-3M,< 0.01 µM
same,selectivity ratio,[2],> 23800
same,GI50,A498,15.4 µM
same,GI50,HOP-92,0.021 µM
same,GI50,A549,< 0.01 µM
same,GI50,HCT-116,< 0.01 µM
same,GI50,[3],< 0.01 µM
same,GI50,OVCAR-8,< 0.01 µM
same,GI50,NCI/ADR-RES,0.04 µM
same,GI50,MOLT-4,< 0.01 µM
same,GI50,BT-549,0.29 µM
same,GI50,HCC 2998,< 0.01 µM
same,GI50,MCF7,< 0.01 µM
same,GI50,RXF 393,12.6 µM
same,GI50,OVCAR-3,< 0.01 µM
same,IC50,Plasmodium falciparum,1.1 µM
same,GI50,HL-60,< 0.01 µM
same,GI50,EKVX,0.078 µM
same,GI50,TK-10,0.278 µM
same,GI50,SF-268,2.03 µM
same,GI50,MDA-N,0.026 µM
same,GI50,KM12,< 0.01 µM
same,GI50,[4],16.2 µM
same,GI50,HCT-15,< 0.01 µM
same,GI50,ACHN,0.026 µM
same,GI50,SW-620,< 0.01 µM
same,selectivity ratio,[5],> 6800
same,GI50,HT-29,< 0.01 µM
same,GI50,LOX IMVI,< 0.01 µM
same,GI50,786-0,0.093 µM
same,GI50,SF-295,7.24 µM
